# PubChem BioAssay (NCI)
#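 Values below derive from 48-hour exposures of cells grown in 96-well plates, with endpoints linearly interpolated between the two concentrations bracketing the appropriate inhibition level. GI50 = concentration required for 50% inhibition of growth. TGI: concentration producing complete growth inhibition.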
# Tests used:
# Assay in all cases: DTP human tumour cell line panel, 48 h
# K-562 leukemia = system: K-562 leukemia
# HOP-18 NSCLC = system: HOP-18 NSCLC
# UACC-62 melanoma = system: UACC-62 melanoma
# SF-539 CNS = system: SF-539 CNS
# KM12 colon = system: KM12 colon
# HCT-116 colon = system: HCT-116 colon
# SW-620 colon = system: SW-620 colon
# EKVX NSCLC = system: EKVX NSCLC
# M14 melanoma = system: M14 melanoma
# SN12C renal = system: SN12C renal
# HOP-62 NSCLC = system: HOP-62 NSCLC
Structure (SMILES),TGI (K-562 leukemia),TGI (HOP-18 NSCLC),TGI (UACC-62 melanoma),TGI (SF-539 CNS),TGI (KM12 colon),TGI (HCT-116 colon),TGI (SW-620 colon),TGI (EKVX NSCLC),TGI (M14 melanoma),TGI (SN12C renal),TGI (HOP-62 NSCLC),GI50 (K-562 leukemia),GI50 (UACC-62 melanoma),GI50 (SF-539 CNS),GI50 (SN12C renal),GI50 (KM12 colon),GI50 (HOP-62 NSCLC),GI50 (SW-620 colon),GI50 (EKVX NSCLC),GI50 (M14 melanoma)
O=Cc1ccc(CCl)cc1,> 100 µM,37.4 µM,27.3 µM,31.6 µM,60.3 µM,29.1 µM,52.1 µM,> 100 µM,33.4 µM,–,–,–,–,–,–,–,–,–,–,–
COC(=O)C1=C(OC(=O)/C=C/c2ccc(Cl)cc2)C(C(=O)OC)[C@@]2(O)[C@@H](C(=O)OC)[C@H](C)C[C@@H]1[C@@H]2C(=O)OC (some centres undefined),> 100 µM,–,54.1 µM,> 100 µM,> 100 µM,58.3 µM,> 100 µM,71.8 µM,> 100 µM,45.7 µM,> 100 µM,–,–,–,–,–,–,–,–,–
COC1(O)c2cccc(Cl)c2C(=O)N1C1(C(N)=O)CCCCC1 (centres undefined),> 100 µM,> 100 µM,> 100 µM,> 100 µM,> 100 µM,> 100 µM,> 100 µM,> 100 µM,–,> 100 µM,> 100 µM,–,–,–,–,–,–,–,–,–
CSc1nc2c(ncn2C2OCC(O)C(O)C2O)c(=O)n1C (centres undefined),> 100 µM,> 100 µM,> 100 µM,> 100 µM,> 100 µM,> 100 µM,> 100 µM,> 100 µM,–,> 100 µM,> 100 µM,–,–,–,–,–,–,–,–,–
COc1cc2c(cc1OC)C(=O)/C(=C/c1cc(OC)c(OC)c(OC)c1)C2,> 100 µM,–,> 100 µM,–,> 100 µM,–,–,–,> 100 µM,> 100 µM,> 100 µM,–,–,–,–,–,–,–,–,–
CN1CCN(Cc2ccc(NC(=O)c3cccc(C#Cc4cnc(N)c5ncccc45)c3F)cc2C(F)(F)F)CC1,0.733 µM,–,13.1 µM,1.5 µM,6.51 µM,–,1.71 µM,13.7 µM,1.37 µM,1.59 µM,8.71 µM,0.005 µM,2.84 µM,0.733 µM,0.817 µM,0.332 µM,1.74 µM,0.62 µM,6.57 µM,0.59 µM
CC(=O)NC(Cc1ccsc1)C(=O)O (centres undefined),> 100 µM,> 100 µM,> 100 µM,> 100 µM,> 100 µM,> 100 µM,> 100 µM,> 100 µM,–,> 100 µM,> 100 µM,–,–,–,–,–,–,–,–,–
COc1cccc(NC(=O)C(=O)C(C(=O)c2ccccc2F)C2OC(=O)c3ccccc32)c1 (centres undefined),> 100 µM,–,> 100 µM,57.3 µM,> 100 µM,46.1 µM,> 100 µM,> 100 µM,> 100 µM,> 100 µM,> 100 µM,–,–,–,–,–,–,–,–,–
COC(=O)C(C/C=C(\C)c1ccc(Cl)cc1)C(C)=O (centres undefined),> 100 µM,> 100 µM,> 100 µM,> 100 µM,> 100 µM,> 100 µM,> 100 µM,> 100 µM,–,> 100 µM,> 100 µM,–,–,–,–,–,–,–,–,–
COc1ccc2[nH]c3c(C)c4ccnc(NCCCN(C)CCCNc5ccc6ncn7c8ccccc8c(=O)c5c67)c4c(C)c3c2c1,4.25 µM,–,9.18 µM,0.379 µM,4.65 µM,3.01 µM,25 µM,2.48 µM,2.48 µM,3.38 µM,0.784 µM,–,–,–,–,–,–,–,–,–
O=C(O)C12CCCCC1CCCC2 (centres undefined),> 100 µM,> 100 µM,> 100 µM,> 100 µM,> 100 µM,> 100 µM,> 100 µM,> 100 µM,> 100 µM,> 100 µM,> 100 µM,–,–,–,–,–,–,–,–,–
